From patent publication US12495798B2, “Nicotinamide compound and herbicidal composition comprising compound” (KOREA RESEARCH INSTITUTE OF CHEMICAL TECHNOLOGY, priority 2019, dated 2025)

Assays:
Type in all cases: in vivo
[1] = system: velvetleaf; assay: Herbicidal activity test against upland field weeds (foliar treatment test); set-up: key to Foliar treatment herbicidal activity, velvet leaf: 0 (no control); 100 (complete control); conditions: 50 g ai/ha; for pest or weed control at 50 g/ha: Abutilon theophrasti, scale 0-100, read-out: Foliar treatment herbicidal activity, velvet leaf
In short: (§1)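 Visual 0–100 control ratings relative to untreated plants, taken 14 (or 21) days after spraying foliage at 50 or 75 g a.i./ha. Spray solution: 50% acetone with 0.1% Tween-20; plants kept in greenhouse at 30±5 °C, 14 h light/10 h dark.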

[2] = system: sorghum; assay: as above; set-up: key to Foliar treatment herbicidal activity, Sorghum: 0 (no control); 100 (complete control); conditions: 50 g ai/ha, scale 0-100; for plant injury at 50 g/ha: Sorghum
In short: as §1

[3] = system: sorghum; assay: Herbicidal activity test against upland field weeds (soil treatment test); set-up: key to Soil treatment herbicidal activity, Sorghum: 0 (no control); 100 (complete control); conditions: 50 g ai/ha, scale 0 (no control) to 100 (complete control)
In short: (§2)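 Weed control scored visually on a 0 (none) to 100 (complete) scale versus untreated pots at 14 or 21 days in greenhouse (30±5 °C, 14 h light). Test compounds, 50 or 75 g a.i./ha in 50% acetone/0.1% Tween-20, hand-sprayed onto soil one day post-sowing.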

[4] = system: quack grass; assay: as above; set-up: key to Soil treatment herbicidal activity, quack grass: 0 (no control); 100 (complete control); conditions: 50 g ai/ha, scale 0 (no control) to 100 (complete control)
In short: as §2

[5] = system: fall panicum; assay: as above; set-up: key to Soil treatment herbicidal activity, Fall panicum: 0 (no control); 100 (complete control); conditions: 50 g ai/ha, scale 0 (no control) to 100 (complete control); for pest or weed control at 50 g/ha: Panicum dichotomiflorum
In short: as §2

[6] = system: velvetleaf; assay: as above; set-up: key to Soil treatment herbicidal activity, velvet leaf: 0 (no control); 100 (complete control); conditions: 50 g ai/ha, scale 0 (no control) to 100 (complete control)
In short: as §2

[7] = system: black nightshade; assay: Herbicidal activity test against upland field weeds (foliar treatment test); set-up: key to Foliar treatment herbicidal activity, black nightshade: 0 (no control); 100 (complete control); conditions: 50 g ai/ha, scale 0-100
In short: as §1

[8] = system: crabgrass; assay: as above; conditions: Digitaria sanguinalis, 50 g ai/ha, scale 0-100
In short: as §1

[9] = system: cotton; assay: Phytotoxicity test for upland field crops (foliar treatment test); set-up: key: 0 (no harm); 9 (complete withered)
In short: (§3)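 Post-emergence spray at 19–300 g a.i./ha (acetone/Tween-20 diluent, 100 ml/m²) onto greenhouse-grown plants. Damage rated 7 and 14 (optionally 21) days later on a 0–9 scale relative to untreated plants.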

[10] = system: corn; assay: as above; set-up: key: 0 (no harm); 9 (complete withered)
In short: as §3

[11] = system: rice; assay: as above; set-up: key: 0 (no harm); 9 (complete withered)
In short: as §3

[12] = system: wheat; assay: as above; set-up: key: 0 (no harm); 9 (complete withered)
In short: as §3

[13] = system: soybean; assay: as above; set-up: key: 0 (no harm); 9 (complete withered)
In short: as §3

[14] = 50 g ai/ha, Cotton (7 days after treatment)
[15] = 50 g ai/ha, Cotton (14 days after treatment)
[16] = 100 g ai/ha, Cotton (7 days after treatment)
[17] = 100 g ai/ha, Cotton (14 days after treatment)
[18] = 50 g ai/ha, Corn (7 days after treatment)
[19] = 50 g ai/ha, Corn (14 days after treatment)
[20] = 100 g ai/ha, Corn (7 days after treatment)
[21] = 100 g ai/ha, Corn (14 days after treatment)
[22] = 50 g ai/ha, Rice (7 days after treatment)
[23] = 50 g ai/ha, Rice (14 days after treatment)
[24] = 100 g ai/ha, Rice (7 days after treatment)
[25] = 100 g ai/ha, Rice (14 days after treatment)
[26] = 50 g ai/ha, Wheat (7 days after treatment)
[27] = 50 g ai/ha, Wheat (14 days after treatment)
[28] = 100 g ai/ha, Wheat (7 days after treatment)
[29] = 100 g ai/ha, Wheat (14 days after treatment)
[30] = 50 g ai/ha, Soybean (7 days after treatment)
[31] = 50 g ai/ha, Soybean (14 days after treatment)
[32] = 100 g ai/ha, Soybean (7 days after treatment)
[33] = 100 g ai/ha, Soybean (14 days after treatment)

Row | Structure (SMILES) | Soil treatment herbicidal activity, quack grass [4] | Soil treatment herbicidal activity, velvet leaf [6] | pest or weed control at 50 g/ha [8] | Foliar treatment phytotoxicity, Cotton [9, 14] | Foliar treatment phytotoxicity, Cotton [9, 15] | Foliar treatment phytotoxicity, Cotton [9, 16] | Foliar treatment phytotoxicity, Cotton [9, 17] | Foliar treatment phytotoxicity, Corn [10, 18] | Foliar treatment phytotoxicity, Corn [10, 19] | Foliar treatment phytotoxicity, Corn [10, 20] | Foliar treatment phytotoxicity, Corn [10, 21] | Foliar treatment phytotoxicity, Rice [11, 22] | Foliar treatment phytotoxicity, Rice [11, 23] | Foliar treatment phytotoxicity, Rice [11, 24] | Foliar treatment phytotoxicity, Rice [11, 25] | Foliar treatment phytotoxicity, Wheat [12, 26] | Foliar treatment phytotoxicity, Wheat [12, 27] | Foliar treatment phytotoxicity, Wheat [12, 28] | Foliar treatment phytotoxicity, Wheat [12, 29] | Foliar treatment phytotoxicity, Soybean [13, 30] | further results
1 | Cn1ncnc1COc1nc(C(F)(F)F)ccc1C(=O)Nc1nnnn1C [Compound No. 1-45, 2-((1-methyl-1H-1,2,4-triazol-5-yl)methoxy)-N-(1-methyl-1H-tetrazol-5-yl)-6-(trifluoromethyl)nicotinamide] | 0 | 100 | 95% | 5 | 9 | 5 | 9 | 1 | 0 | 3 | 2 | 6 | 9 | 6 | 9 | 0 | 0 | 0 | 0 | 6 | pest or weed control at 50 g/ha [1]: 80%; plant injury at 50 g/ha [2]: 50%; Soil treatment herbicidal activity, Sorghum [3]: 0; pest or weed control at 50 g/ha [5]: 98%; Foliar treatment herbicidal activity, black nightshade [7]: 100; Foliar treatment phytotoxicity, Soybean [13, 31]: 7.5; Foliar treatment phytotoxicity, Soybean [13, 32]: 7; Foliar treatment phytotoxicity, Soybean [13, 33]: 9
2 | Cn1nnc(COCc2nc(C(F)(F)F)ccc2C(=O)N(C(=O)c2ccccc2)c2nnnn2C)n1 [Compound No. 2-68, N-benzoyl-N-(1-methyl-1H-tetrazol-5-yl)-2-(((2-methyl-2H-tetrazol-5-yl)methoxy)methyl)-6-(trifluoromethyl)nicotinamide] | 0 | 100 | 98% | 4 | 9 | 5 | 9 | 4 | 4 | 6 | 6 | 6 | 5 | 6 | 8 | 0 | 0 | 1 | 0 | 5 | Foliar treatment herbicidal activity, velvet leaf ([1]; scale 0-100): 100; plant injury at 50 g/ha [2]: 80%; plant injury at 50 g/ha ([3]; Sorghum): 40%; pest or weed control at 50 g/ha [5]: 90%; Foliar treatment herbicidal activity, black nightshade [7]: 100; Foliar treatment phytotoxicity, Soybean [13, 31]: 5; Foliar treatment phytotoxicity, Soybean [13, 32]: 6; Foliar treatment phytotoxicity, Soybean [13, 33]: 7
3 | Cn1nnc(COc2nc(C(F)(F)F)ccc2C(=O)Nc2nnnn2C)n1 [Compound No. 2-1, N-(1-methyl-1H-tetrazol-5-yl)-2-((2-methyl-2H-tetrazol-5-yl)methoxy)-6-(trifluoromethyl)nicotinamide] | 0 | 0 | 95% | 6 | 8 | 6 | 9 | 2 | 1 | 2 | 2 | 4 | 3 | 5 | 4 | 0 | 0 | 0 | 0 | 5 | pest or weed control at 50 g/ha [1]: 30%; Foliar treatment herbicidal activity, Sorghum [2]: 0; Soil treatment herbicidal activity, Sorghum [3]: 0; Soil treatment herbicidal activity, Fall panicum [5]: 0; Foliar treatment herbicidal activity, black nightshade [7]: 100; Foliar treatment phytotoxicity, Soybean [13, 31]: 6; Foliar treatment phytotoxicity, Soybean [13, 32]: 6; Foliar treatment phytotoxicity, Soybean [13, 33]: 6
4 | Cn1nc(COCc2nc(C(F)(F)F)ccc2C(=O)Nc2nnnn2C)nc1Cl [Compound No. 2-135, 2-(((5-chloro-1-methyl-1H-1,2,4-triazol-3-yl)methoxy)methyl)-N-(1-methyl-1H-tetrazol-5-yl)-6-(trifluoromethyl)nicotinamide] | 0 | 0 | 70% | 3 | 7 | 3 | 7 | 0 | 0 | 0 | 0 | 3 | 6 | 4 | 6 | 0 | 0 | 0 | 0 | 4 | pest or weed control at 50 g/ha [1]: 40%; plant injury at 50 g/ha [2]: 30%; Soil treatment herbicidal activity, Sorghum [3]: 0; Soil treatment herbicidal activity, Fall panicum [5]: 0; pest or weed control at 50 g/ha ([7]; Solanum nigrum): 98%; Foliar treatment phytotoxicity, Soybean [13, 31]: 6; Foliar treatment phytotoxicity, Soybean [13, 32]: 4; Foliar treatment phytotoxicity, Soybean [13, 33]: 7
